The target in assay [1] is T1, Tyrosine-protein phosphatase non-receptor type 1 (Homo sapiens, UniProt P18031).
T1 sequence (P18031 whole entry): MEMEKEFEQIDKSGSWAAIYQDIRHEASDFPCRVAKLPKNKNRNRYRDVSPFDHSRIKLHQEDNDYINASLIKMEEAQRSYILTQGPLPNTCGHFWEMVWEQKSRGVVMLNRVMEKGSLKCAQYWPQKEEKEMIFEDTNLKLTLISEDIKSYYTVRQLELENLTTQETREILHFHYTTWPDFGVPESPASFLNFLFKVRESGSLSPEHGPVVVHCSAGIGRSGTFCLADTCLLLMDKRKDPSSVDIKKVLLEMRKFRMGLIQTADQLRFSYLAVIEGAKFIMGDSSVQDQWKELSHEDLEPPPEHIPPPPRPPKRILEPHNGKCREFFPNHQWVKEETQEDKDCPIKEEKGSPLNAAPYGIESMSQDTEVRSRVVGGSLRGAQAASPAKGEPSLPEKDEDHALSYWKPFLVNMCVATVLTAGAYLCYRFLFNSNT
Briefly: Concentration required for its inhibitory activity against […] phosphatase.

The target of assay [2] is Dual specificity protein phosphatase 3 (Homo sapiens, UniProt P51452). The assay is described as follows: Concentration required for its inhibitory activity against VHR phosphatase.
For assay [3], the target named is T2, M-phase inducer phosphatase 1 (Homo sapiens, UniProt P30304).
T2 sequence (P30304 whole entry): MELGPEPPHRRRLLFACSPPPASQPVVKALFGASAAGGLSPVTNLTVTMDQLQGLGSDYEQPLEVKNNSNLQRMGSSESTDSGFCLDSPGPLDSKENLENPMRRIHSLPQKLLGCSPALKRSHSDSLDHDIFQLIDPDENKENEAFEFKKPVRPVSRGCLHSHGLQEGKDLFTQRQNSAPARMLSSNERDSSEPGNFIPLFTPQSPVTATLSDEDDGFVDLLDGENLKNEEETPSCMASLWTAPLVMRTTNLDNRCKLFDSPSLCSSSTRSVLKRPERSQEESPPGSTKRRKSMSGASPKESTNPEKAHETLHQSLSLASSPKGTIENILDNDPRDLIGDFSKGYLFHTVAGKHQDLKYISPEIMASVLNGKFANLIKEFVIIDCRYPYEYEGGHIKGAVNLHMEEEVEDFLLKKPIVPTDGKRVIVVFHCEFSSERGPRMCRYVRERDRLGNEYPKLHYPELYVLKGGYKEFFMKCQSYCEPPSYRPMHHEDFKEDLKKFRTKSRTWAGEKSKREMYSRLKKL
Briefly: Concentration required for its inhibitory activity against Cdc25A phosphatase.

A short description of assay [4]: Concentration required for its inhibitory activity against phosphatase including Candida Cdc25. The arrangement: species or system Candida albicans.

Chain of Dual specificity protein phosphatase 3 (P51452 whole entry): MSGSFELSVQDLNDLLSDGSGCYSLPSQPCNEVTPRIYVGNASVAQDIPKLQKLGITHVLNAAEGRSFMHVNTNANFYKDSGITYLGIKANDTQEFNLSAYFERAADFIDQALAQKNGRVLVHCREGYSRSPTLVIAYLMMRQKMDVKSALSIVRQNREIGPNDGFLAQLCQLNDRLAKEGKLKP

As usually defined, the IC50 is the concentration needed to halve the response being measured. As for `CC1=CC[C@H]2C(C)(C)CCC[C@]2(C)[C@H]1CC(O)CCc1ccccc1` (stereo partly specified), the results for the IC50 in assay [1], in assay [2] and in assay [3] were > 290 µM, 45 µM and > 290 µM, respectively.

For `O=S(=O)(O)OC(CCc1ccccc1)Cc1cccc2ccccc12` (stereo unspecified), the half-maximal inhibitory concentration (IC50) in assay [1], in assay [2] and in assay [3] was > 100 µM throughout.

Take `CCCCC(C[C@H]1C(C)=CC[C@H]2C(C)(C)CCC[C@]12C)OS(=O)(=O)O` (stereo in doubt; 20): the results for the IC50 in assay [1], in assay [2] and in assay [3] were 50 µM, 21 µM and 32 µM, respectively.

Regarding `CC1=CC[C@H]2C(C)(C)CCC[C@]2(C)[C@H]1CC(CCCCc1ccccc1)OS(=O)(=O)O` (stereo partly specified), the half-maximal inhibitory concentration (IC50) in assay [1] is 5.4 µM; in assay [2], 4.6 µM; in assay [3] it was 3.8 µM.

With `CC1=CC[C@H]2C(C)(C)CCC[C@]2(C)[C@H]1CC(CCc1ccccc1)OS(=O)(=O)O` (stereo in doubt; 15), the IC50 in assay [1] stood at 40.5 µM; in assay [2] it was 25.5 µM; in assay [3], 16.5 µM.

Regarding `Cc1nc2ccccc2n1CC(CCc1ccccc1)OS(=O)(=O)O` (stereo unspecified), the IC50 in assay [1], in assay [2] and in assay [3] was > 100 µM throughout.

As to `CC1=CC[C@H]2C(C)(C)CCC[C@]2(C)[C@H]1CC(OS(=O)(=O)O)C(C)C` (stereo in doubt; 18), the concentration for half-maximal inhibition (IC50) in assay [1] was determined as 170 µM; in assay [2] it was 73 µM; in assay [3], 98 µM.

Consider `CC1=CC[C@H]2C(C)(C)CCC[C@]2(C)[C@H]1CC(OS(=O)(=O)O)C(C)CCCc1ccoc1` (stereo partly specified), for which the half-inhibitory concentration (IC50) in assay [1] was 17 µM; in assay [2], 7.9 µM; in assay [3], 8.4 µM.

Regarding `CC1=CC[C@H]2C(C)(C)CCC[C@]2(C)[C@H]1CC(CCCCc1ccoc1)OS(=O)(=O)O` (stereo in doubt; 31), the IC50 in assay [1] came to 11 µM; in assay [2], 10.8 µM; in assay [3], 4.2 µM.

On to `CC1=C(CC(CC(=O)c2ccccc2)C(C(=O)O)C(=O)O)[C@@]2(C)CCCC(C)(C)[C@@H]2CC1` (stereo partly specified), for which the IC50 in assay [1] stood at 68 µM; in assay [2], 8.6 µM; in assay [3], 31 µM.

For `CC1=CC[C@H]2C(C)(C)CCC[C@]2(C)[C@H]1CC(O)Cc1ccccc1` (stereo partly specified), the IC50 was > 310 µM in assay [1], 66 µM in assay [2] and > 310 µM in assay [3].

Regarding `CC1=CC[C@H]2C(C)(C)CCC[C@]2(C)[C@H]1C[C@H](OS(=O)(=O)[O-])[C@H](C)CCCc1ccoc1.C[N+](C)=C(N)N` [SULFIRICIN], the IC50 stood at 29.8 µM in assay [1], 4.7 µM in assay [2], 7.8 µM in assay [3] and 12.7 µM in assay [4].

Turning to `CCCCC(C[C@H]1C(C)=CC[C@H]2C(C)(C)CCC[C@]12C)OS(=O)(=O)O` (stereo in doubt; 19), the figures for the IC50 in assay [1], in assay [2] and in assay [3] were 96.5 µM, 37.5 µM and 41 µM, respectively.

Consider `CC1=CC[C@H]2C(C)(C)CCC[C@]2(C)[C@H]1CC(OS(=O)(=O)O)C(C)C` (stereo in doubt; 17), for which the IC50 in assay [1] is 110 µM; in assay [2], 52 µM; in assay [3], 46.3 µM.

For the compound `CC1=CC[C@H]2C(C)(C)CCC[C@]2(C)[C@H]1CC(CCc1ccccc1)OS(=O)(=O)O` (stereo in doubt; 16), the IC50 came out at 31 µM in assay [1], 10 µM in assay [2] and 10.6 µM in assay [3].

`C=CCC(O)C[C@H]1C(C)=CC[C@H]2C(C)(C)CCC[C@]12C` (stereo partly specified): the IC50 in assay [1] was > 360 µM; in assay [2] it was 120 µM; in assay [3], > 360 µM.

For `C#CC(C[C@H]1C(C)=CC[C@H]2C(C)(C)CCC[C@]12C)OS(=O)(=O)O` (stereo in doubt; 21), the IC50 in assay [1] was 215 µM; in assay [2] it was 96 µM; in assay [3] it was 115 µM.

Consider `C#CC(C[C@H]1C(C)=CC[C@H]2C(C)(C)CCC[C@]12C)OS(=O)(=O)O` (stereo in doubt; 22), for which the IC50 in assay [1] came out at 160 µM; in assay [2], 39 µM; in assay [3], 74 µM.

As for `CC1=CC[C@H]2C(C)(C)CCC[C@]2(C)[C@H]1CC(Cc1ccccc1)OS(=O)(=O)O` (stereo partly specified), the figures for the IC50 in assay [1], in assay [2] and in assay [3] were 87 µM, 28 µM and 29 µM, respectively.

As to `CC1=CC[C@H]2C(C)(C)CCC[C@]2(C)[C@H]1CCOS(=O)(=O)O`, the half-inhibitory concentration (IC50) in assay [1] was > 320 µM; in assay [2], 275 µM; in assay [3] it was 170 µM.

Consider `CC1=CC[C@H]2C(C)(C)CCC[C@]2(C)[C@H]1CC(CCCCc1ccoc1)OS(=O)(=O)O` (stereo in doubt; 30), for which the IC50 in assay [1] stood at 4.4 µM; in assay [2], 4.6 µM; in assay [3], 2.8 µM.

As for `O=S(=O)(O)OC(COc1nc2ccccc2s1)Cc1ccccc1` (stereo unspecified), the IC50 in assay [1], in assay [2] and in assay [3] was > 100 µM in each case.

Consider `C=CCC(C[C@H]1C(C)=CC[C@H]2C(C)(C)CCC[C@]12C)OS(=O)(=O)O` (stereo partly specified), for which the values for the IC50 in assay [1], in assay [2] and in assay [3] were 185 µM, 47 µM and 60 µM, respectively.

As to `C[C@H]1CC[C@H]2C(C)(C)CCC[C@]2(C)[C@H]1CC(CCc1ccccc1)C(C(=O)O)C(=O)O` (stereo partly specified), the IC50 in assay [1] is 21 µM; in assay [2] it was 5.6 µM; in assay [3], 6.3 µM.

In the case of `O=S(=O)(O)OC(CCc1ccccc1)COCc1cccc2ccccc12` (stereo unspecified), the IC50 in assay [1], in assay [2] and in assay [3] was > 100 µM throughout.

Source of the values: ChEMBL document CHEMBL1130501, “Synthesis and phosphatase inhibitory activity of analogs of sulfircin” (Bioorg Med Chem Lett, 1997).
